According to US8653087B2, “Pyrido [5, 4-D] pyrimidines as cell proliferation inhibitors” (Boehringer Ingelheim International GmbH, priority 2008, dated 2014):

These compounds were tested against B-Raf (V600E)-kinase (Homo sapiens (Human), UniProt P15056, V600E) (assay: Kinase test B-RAF (V600E)). Conditions: B-RAF (V600E) kinase test, 250 μM ATP.
Assay type: biochemical
How it was run: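 B-Raf (V600E) (0.5 ng) preincubated with compound 24 h at RT (5% DMSO), then reacted 60 min at RT with 250 μM ATP and biotinylated MEK1 as substrate. Phospho-MEK (Ser217/221) captured on streptavidin and detected by europium time-resolved fluorescence; IC50 from dose-response curves.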

Chain of B-Raf (V600E)-kinase (P15056 whole entry V600E): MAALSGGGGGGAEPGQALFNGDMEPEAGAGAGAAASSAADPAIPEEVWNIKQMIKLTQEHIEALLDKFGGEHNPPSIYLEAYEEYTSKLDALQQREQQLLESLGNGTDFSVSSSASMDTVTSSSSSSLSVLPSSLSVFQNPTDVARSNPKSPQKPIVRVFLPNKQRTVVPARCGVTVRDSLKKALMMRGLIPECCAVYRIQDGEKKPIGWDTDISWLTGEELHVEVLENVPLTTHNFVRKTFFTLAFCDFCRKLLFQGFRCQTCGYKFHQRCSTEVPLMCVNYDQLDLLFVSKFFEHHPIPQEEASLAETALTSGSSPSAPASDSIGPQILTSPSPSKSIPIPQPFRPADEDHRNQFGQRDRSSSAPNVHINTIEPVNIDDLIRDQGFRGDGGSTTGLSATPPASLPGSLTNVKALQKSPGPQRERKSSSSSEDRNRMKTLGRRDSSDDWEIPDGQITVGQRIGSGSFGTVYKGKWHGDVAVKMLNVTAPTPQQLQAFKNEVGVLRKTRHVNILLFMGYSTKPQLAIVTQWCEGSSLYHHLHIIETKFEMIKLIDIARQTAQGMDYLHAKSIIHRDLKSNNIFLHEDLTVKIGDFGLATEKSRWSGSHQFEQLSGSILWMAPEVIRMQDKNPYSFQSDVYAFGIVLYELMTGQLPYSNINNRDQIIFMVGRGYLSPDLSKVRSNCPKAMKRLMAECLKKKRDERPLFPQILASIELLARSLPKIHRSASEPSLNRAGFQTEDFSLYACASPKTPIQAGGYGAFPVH

Row | Structure (SMILES) | IC50
1 | Cc1ccc(C(=O)Nc2ccc(C#N)c(C(F)(F)F)c2)cc1Nc1ncnc2cnc(N3CCOCC3)nc12 [III-340] | 4 nM
2 | COc1c(NC(=O)c2ccc(C)c(Nc3ncnc4cnc(N5CCCC5)nc34)c2)cc(C(C)(C)C)cc1NS(C)(=O)=O [III-277] | 23 nM
3 | COc1ccc(NC(=O)c2ccc(C)c(Nc3ncnc4c(N)nc(N5CCN(CC6CCN(C)CC6)CC5)nc34)c2)cc1C(F)(F)F [I-16] | 1 nM
4 | Cc1cc(C(=O)Nc2cc(C(C)(C)C)nn2C)cc(Nc2ncnc3cnc(N4CCN(C)CC4)nc23)c1C [III-373] | 8 nM
5 | COCCN1CCN(c2ncc3ncnc(Nc4cc(C(=O)Nc5cc(OC)cc(C(F)(F)F)c5)ccc4C)c3n2)CC1 [III-535] | 4 nM
6 | Cc1ccc(NC(=O)c2cccc(C(C)(C)C#N)c2)cc1Nc1ncnc2cnc(N(C)C3CCOCC3)nc12 [IV-31] | 5 nM
7 | COCCN(C)c1ncc2ncnc(Nc3cc(C(=O)Nc4cc(C(C)(C)C)n[nH]4)ccc3C)c2n1 [III-471] | 4 nM
8 | Cc1ccc(C(=O)Nc2cc(C(C)(C)C)nn2C)cc1Nc1ncnc2c(N)nc(N3CCN(C)CC3)nc12 [I-72] | 12 nM
9 | Cc1ccc(C(=O)Nc2cc(N3CCOCC3)cc(C(F)(F)F)c2)cc1Nc1ncnc2cnc(N3CCOCC3)nc12 [III-525] | 3 nM
10 | COc1ncc2ncnc(Nc3cc(C(=O)Nc4cc(N(C)CCN(C)C)cc(C(F)(F)F)c4)ccc3C)c2n1 [III-571] | 2 nM
11 | Cc1ccc(C(=O)Nc2cc(CN3CCCC3)cc(C(F)(F)F)c2)cc1Nc1ncnc2cnc(N3CCOCC3)nc12 [III-108] | < 1 nM
12 | COc1ccc(C(F)(F)F)cc1NC(=O)c1ccc(C)c(Nc2ncnc3cnc(N4CCOCC4)nc23)c1 [III-304] | < 1 nM
13 | CN1CCC(N2CCN(c3nc(N)c4ncnc(Nc5cccc(C(=O)Nc6cccc(C(F)(F)F)c6)c5)c4n3)CC2)CC1 [I-21] | 22 nM
14 | COCCN1CCN(c2ncc3ncnc(Nc4cc(C(=O)Nc5cc(C(F)(F)F)ccc5C#N)ccc4C)c3n2)CC1 [III-531] | 13 nM
15 | COc1ccc(C(=O)Nc2ccc(OC)c(C(F)(F)F)c2)cc1Nc1ncnc2cnc(N3CCCN(C)CC3)nc12 [III-20] | 3 nM
16 | COc1ccc(NC(=O)c2ccc(F)c(Nc3ncnc4cnc(N5CCCC5)nc34)c2)cc1C(F)(F)F [III-38] | 5 nM
17 | COc1ccc(NC(=O)c2ccc(C(F)(F)F)c(Nc3ncnc4cnc(N(C)C)nc34)c2)cc1C(F)(F)F [III-54] | 543 nM
18 | Cc1ccc(C(=O)Nc2cc(C(C)(C)C)n[nH]2)cc1Nc1ncnc2c(N)nc(N3C[C@@H]4C[C@H]3CN4)nc12 [I-69] | 2 nM
19 | Cc1ccc(C(=O)NCc2ccc(C(C)(C)C)cc2)cc1Nc1ncnc2cnc(N3CCN(C)CC3)nc12 [III-226] | 101 nM
20 | COc1ccc(NC(=O)c2ccc(C)c(Nc3ncnc4cnc(N(C)CC5CCCCO5)nc34)c2)cc1C(F)(F)F (centres unmarked) [III-409] | 9 nM
21 | CN1CCN(c2ncc3ncnc(Nc4cc(C(=O)Nc5cc(C(C)(C)C)on5)ccc4Cl)c3n2)CC1 [III-72] | 4 nM
22 | Cc1ccc(C(=O)Nc2cc(C(C)(C)C)on2)cc1Nc1ncnc2cnc(N3C[C@@H](C)N[C@@H](C)C3)nc12 [III-496] | 2 nM
23 | Cc1ccc(C(=O)Nc2cc(OCCN(C)C)cc(C(F)(F)F)c2)cc1Nc1ncnc2cnc(NCc3ccccc3)nc12 [III-147] | 1 nM
24 | COc1ccc(C(=O)Nc2cccc(C(F)(F)F)c2)cc1Nc1ncnc2c(N)nc(N3CCN(C4CCN(C)CC4)CC3)nc12 [I-32] | 14 nM

Row | Structure (SMILES) | IC50
25 | Cc1ccc(C(=O)Nc2cccc(C(C)(C)C#N)c2)cc1Nc1ncnc2cnc(N(C)CCN(C)C)nc12 [III-198] | 11 nM
26 | Cc1ccc(C(=O)Nc2cccc(OC(F)(F)F)c2)cc1Nc1ncnc2cnc(N(C)CCN(C)C)nc12 [III-237] | 2 nM
27 | Cc1ccc(C(=O)Nc2cccc(S(=O)(=O)N(C)C)c2)cc1Nc1ncnc2cnc(N(C)CCN(C)C)nc12 [III-195] | 59 nM
28 | COc1ccc(NC(=O)c2ccc(C)c(Nc3ncnc4c(N)nc(N5CCN(C)CC5)nc34)c2)cc1C(F)(F)F [I-1] | 26 nM
29 | Cc1ccc(C(=O)Nc2cccc(C(C)(C)C)c2)cc1Nc1ncnc2cnc(N3CCN(C)CC3)nc12 [III-229] | 1 nM
30 | COc1ccc(NC(=O)c2ccc(C(F)(F)F)c(Nc3ncnc4cnc(N5CCCN(C)CC5)nc34)c2)cc1C(F)(F)F [III-45] | 283 nM
31 | Cc1ccc(C(=O)Nc2cc(N3CCN(C)CC3)c(F)c(C(F)(F)F)c2)cc1Nc1ncnc2cnc(N3CCOCC3)nc12 [III-503] | 1 nM
32 | Cc1ccc(C(=O)Nc2cc(C(C)(C)C)on2)cc1Nc1ncnc2cnc(N3CCC(N4C[C@@H](C)O[C@@H](C)C4)CC3)nc12 [III-488] | 6 nM
33 | COc1ccc(NC(=O)c2ccc(F)c(Nc3ncnc4cnc(N5CCN(C(C)C)CC5)nc34)c2)cc1C(F)(F)F [III-403] | 3 nM
34 | Cc1ccc(C(=O)NCc2cccc(C(F)(F)F)c2)cc1Nc1ncnc2cnc(N3CCCC3)nc12 [III-257] | 61 nM
35 | Cc1ccc(C(=O)Nc2cccc(C(C)(C)C#N)c2)cc1Nc1ncnc2cnc(NCc3ccccc3)nc12 [III-430] | 7 nM
36 | Cc1ccc(C(=O)Nc2ccc(F)c(C(F)(F)F)c2)cc1Nc1ncnc2cnc(N3CCCC3)nc12 [III-265] | 4 nM
37 | Cc1ccc(C(=O)NC2CC2)cc1Nc1ncnc2cnc(N3CCCN(C)CC3)nc12 [III-185] | > 15000 nM
38 | Cc1ccc(C(=O)Nc2cc(C(C)(C)C)on2)cc1Nc1ncnc2cnc(N3CCN(CC4CCN(C)CC4)CC3)nc12 [III-420] | 1 nM
39 | COc1ccc(NC(=O)c2ccc(C)c(N(C)c3ncnc4cnc(N5CCOCC5)nc34)c2)cc1C(F)(F)F [III-584] | 18 nM
40 | CN1CCCN(c2ncc3ncnc(Nc4cc(C(=O)Nc5cc(C(C)(C)C)on5)ccc4C(F)(F)F)c3n2)CC1 [III-58] | 88 nM
41 | Cc1ccc(C(=O)Nc2cc(C(C)(C)C)on2)cc1Nc1ncnc2cnc(NCC(C)C)nc12 [III-487] | 13 nM
42 | COc1ccc(NC(=O)c2ccc(Cl)c(Nc3ncnc4cnc(N(C)CCN(C)C)nc34)c2)cc1C(F)(F)F [III-5] | 2 nM
43 | Cc1ccc(C(=O)Nc2cc(CN3CCCC3)cc(C(F)(F)F)c2)cc1Nc1ncnc2cnc(N3CCC3)nc12 [III-100] | 4 nM
44 | Cc1ccc(C(=O)Nc2cc(CN3CCCC3)cc(C(F)(F)F)c2)cc1Nc1ncnc2cnc(NCCF)nc12 [III-101] | 1 nM
45 | Cc1ccc(C(=O)NCc2cccc(C(C)(C)C)c2)cc1Nc1ncnc2cnc(N3CCCCC3)nc12 [III-308] | 47 nM
46 | COc1ccc(C(=O)Nc2cc(C(C)(C)C)on2)cc1Nc1ncnc2cnc(N3CCN(C)CC3)nc12 [III-95] | 2 nM
47 | CC(C)(C)c1cc(NC(=O)c2ccc(C(F)(F)F)c(Nc3ncnc4cnc(NCCN5CCOCC5)nc34)c2)no1 [III-66] | 1140 nM
48 | Cc1ccc(C(=O)Nc2cc(CN3CCCC3)cc(C(F)(F)F)c2)cc1Nc1ncnc2cncnc12 [V-8] | 4 nM

Row | Structure (SMILES) | IC50
49 | Cn1nc(C(C)(C)C)cc1NC(=O)c1cc(Cl)cc(Nc2ncnc3cnc(N4CCCC4)nc23)c1 [III-377] | 4 nM
50 | Cc1ccc(C(=O)NCC2CCOC2)cc1Nc1ncnc2cnc(N3CCN(C)CC3)nc12 (centres unmarked) [III-187] | > 2000 nM
51 | Cc1ccc(C(=O)Nc2cc(N(C)CCN(C)C)cc(C(F)(F)F)c2)cc1Nc1ncnc2c(N)nc(N3CCCOCC3)nc12 [I-70] | 3 nM
52 | Cc1ccc(C(=O)Nc2cccc(C(C)(C)C#N)c2)cc1Nc1ncnc2cnc(N3CCOCC3)nc12 [III-322] | 1 nM
53 | COc1ccc(C(=O)Nc2cccc(C(F)(F)F)c2)cc1Nc1ncnc2c(N)nc(N3CCCN(C)CC3)nc12 [I-31] | 58 nM
54 | Cc1ccc(C(=O)Nc2cccc(C(C)(C)C)c2)cc1Nc1ncnc2cnc(N(C)CCN(C)C)nc12 [III-239] | 6 nM
55 | CN(CCN1CCCC1)c1ncc2ncnc(Nc3cc(C(=O)Nc4cc(C(C)(C)C)on4)ccc3C(F)(F)F)c2n1 [III-59] | 835 nM
56 | COCCN1CCN(c2ncc3ncnc(N(C)c4cc(C(=O)Nc5cc(C(C)(C)C)on5)ccc4C)c3n2)CC1 [III-582] | 74 nM
57 | Cc1ccc(C(=O)Nc2ccccc2)cc1Nc1ncnc2cnc(N(C)CCN(C)C)nc12 [III-202] | > 2000 nM
58 | Cc1ccc(C(=O)NC2CC2)cc1Nc1ncnc2cnc(N3CCCC3)nc12 [III-260] | 2000 nM
59 | COCCN(C)c1ncc2ncnc(Nc3cc(C(=O)Nc4cc(N(C)CCN(C)C)cc(C(F)(F)F)c4)ccc3C)c2n1 [III-469] | < 1 nM
60 | COc1ccc(NC(=O)c2ccc(C)c(Nc3ncnc4cnc(N5CCCN(C)CC5)nc34)c2)cc1C(F)(F)F [III-443] | 1 nM
61 | COc1ccc(C(C)(C)C)cc1NC(=O)c1ccc(C)c(Nc2ncnc3cnc(N4CCNCC4)nc23)c1 [III-343] | 2 nM
62 | Cc1ccc(NC(=O)c2cccc(C(C)(C)C#N)c2)cc1Nc1ncnc2cnc(NC3CCOCC3)nc12 [IV-38] | 2 nM
63 | Cc1ccc(C(=O)Nc2cc(C(C)(C)C)n[nH]2)cc1Nc1ncnc2cnc(NC3CCOC3)nc12 (centres unmarked) [III-353] | < 1 nM
64 | COc1ccc(C(C)(C)C)cc1NC(=O)c1ccc(C)c(Nc2ncnc3cnc(N4CCN(C)CC4)nc23)c1 [III-230] | 6 nM
65 | Cc1ccc(C(=O)NCc2cccc(C(C)(C)C)c2)cc1Nc1ncnc2cnc(N3CCCC3)nc12 [III-278] | 88 nM
66 | CCN1CCN(c2cc(C(=O)Nc3ccc(C)c(Nc4ncnc5cnc(N6CCOCC6)nc45)c3)cc(C(C)(C)C#N)c2)CC1 [IV-67] | 2 nM
67 | CC(C)(C)c1cc(NC(=O)c2ccc(F)c(Nc3ncnc4cnc(N5CCCCCC5)nc34)c2)no1 [III-85] | 7 nM
68 | Cc1ccc(C(=O)Nc2cccc(C(C)(C)C#N)c2)cc1Nc1ncnc2cnc(N3CCCC3)nc12 [III-276] | 6 nM
69 | Cc1ccc(C(=O)Nc2cc(C(C)(C)C)on2)cc1Nc1ncnc2cnc(N3CCN(CC4CCOC4)CC3)nc12 (centres unmarked) [III-482] | 4 nM
70 | COc1c(NC(=O)c2ccc(C)c(Nc3ncnc4cnc(N5CCCN(C)CC5)nc34)c2)cc(C(C)(C)C)cc1NS(C)(=O)=O [III-181] | 17 nM
71 | Cc1ccc(C(=O)Nc2nnc(C(F)(F)F)s2)cc1Nc1ncnc2cnc(N3CC[C@H](F)C3)nc12 [III-285] | 274 nM
